Molecular target: WDR5 (Homo sapiens (Human), UniProt P61964)
Experiment: TR-FRET binding assay, displacement of 10mer-Thr-FAM probe from His-tagged WDR5
Settings: Inhibition of WDR5 by TR-FRET assay
Protocol: The LanthaScreenTM Elite Tb-anti-HIS Antibody from ThermoFisher Scientific was used for this purpose. […] The ratio of the 520 and 495 signals are then utilized to generate a dose-response curve to calculate an IC50 value. […] WDR[…] tag protein is used at 2 nM.

Structure (SMILES)	Ki
COc1cc(CNC(=O)c2cc(CNC3=NCCN3)cc(-c3ccnc(C)c3)c2)ccc1Cl [Example 17, N-(4-chloro-3-methoxybenzyl)-3-(((4,5-dihydro-1H-imidazol-2-yl)amino)methyl)-5-(2-methylpyridin-4-yl)benzamide]	3.2 nM
COc1cc(CNC(=O)c2cc(CNC3=NCCN3)cc(-c3cnccc3C)c2)ccc1Cl [Example 18, N-(4-Chloro-3-methoxybenzyl)-3-(((4,5-dihydro-1H-imidazol-2-yl)amino)methyl)-5-(4-methylpyridin-3-yl)benzamide]	3.1 nM
COc1ccnc(CNC(=O)c2cc(CNC3=NCCN3)cc(-c3cnccc3C)c2)c1 [Example 19, 3-(((4,5-Dihydro-1H-imidazol-2-yl)amino)methyl)-N-((4-methoxypyridin-2-yl)methyl)-5-(4-methylpyridin-3-yl)benzamide]	0.45 nM
COc1cc(OC)cc(C(C)NC(=O)c2cc(CNC3=NCCN3)cc(-c3cnccc3C)c2)c1 (centres unmarked) [Example 20, 3-(((4,5-dihydro-1H-imidazol-2-yl)amino)methyl)-N-(1-(3,5-dimethoxyphenyl)ethyl)-5-(4-methylpyridin-3-yl)benzamide]	0.6 nM
COc1ccnc(CNC(=O)c2cc(CNC3=NCCN3)cc(-c3ccnc(C)c3)c2)c1 [Example 21, 3-(((4,5-Dihydro-1H-imidazol-2-yl)amino)methyl)-N-((4-methoxypyridin-2-yl)methyl)-5-(2-methylpyridin-4-yl)benzamide]	0.39 nM
Cc1cc(-c2cc(CNC3=NCCN3)cc(C(=O)NCc3cc(Cl)ccn3)c2)ccn1 [Example 22, N-((4-chloropyridin-2-yl)methyl)-3-(((4,5-dihydro-1H-imidazol-2-yl)amino)methyl)-5-(2-methylpyridin-4-yl)benzamide]	0.28 nM
COc1ccc(CNC(=O)c2cc(CNC3=NCCN3)cc(-c3ccnc(C)c3)c2)cc1Cl [Example 23, N-(3-chloro-4-methoxybenzyl)-3-(((4,5-dihydro-1H-imidazol-2-yl)amino)methyl)-5-(2-methylpyridin-4-yl)benzamide]	1.3 nM
Cc1ccncc1-c1cc(CNC2=NCCN2)cc(C(=O)NCc2cc(F)cc(Cl)c2)c1 [Example 24, N-(3-chloro-5-fluorobenzyl)-3-(((4,5-dihydro-1H-imidazol-2-yl)amino)methyl)-5-(4-methylpyridin-3-yl)benzamide]	0.37 nM
Cc1ccnc(C(NC(=O)c2cc(CNC3=NCCN3)cc(-c3cnccc3C)c2)C2CC2)c1 (centres unmarked) [Example 25, N-(cyclopropyl(4-methylpyridin-2-yl)methyl)-3-(((4,5-dihydro-1H-imidazol-2-yl)amino)methyl)-5-(4-methylpyridin-3-yl)benzamide]	0.2 nM
Cc1ccc(CNC(=O)c2cc(CNC3=NCCN3)cc(-c3ccnc(C)c3)c2)cn1 [Example 26, 3-(((4,5-dihydro-1H-imidazol-2-yl)amino)methyl)-N-((6-methylpyridin-3-yl)methyl)-5-(2-methylpyridin-4-yl)benzamide]	3 nM
Cc1cc(-c2cc(CNC3=NCCN3)cc(C(=O)NCc3ccc(Cl)cn3)c2)ccn1 [Example 27, N-((5-chloropyridin-2-yl)methyl)-3-(((4,5-dihydro-1H-imidazol-2-yl)amino)methyl)-5-(2-methylpyridin-4-yl)benzamide]	1.5 nM
Cc1ccc(CNC(=O)c2cc(CNC3=NCCN3)cc(-c3cnccc3C)c2)cn1 [Example 28, 3-(((4,5-Dihydro-1H-imidazol-2-yl)amino)methyl)-5-(4-methylpyridin-3-yl)-N-((6-methylpyridin-3-yl)methyl)benzamide]	7.6 nM
Cc1cc(-c2cc(CNC3=NCCN3)cc(C(=O)NCc3nccc(C)n3)c2)ccn1 [Example 29, 3-(((4,5-Dihydro-1H-imidazol-2-yl)amino)methyl)-5-(2-methylpyridin-4-yl)-N-((4-methylpyrimidin-2-yl)methyl)benzamide]	13 nM
COc1cc(CNC(=O)c2cc(CNC3=NCCN3)cc(-c3cnc(F)c(C)c3)c2)cc(OC)c1 [Example 30, 3-(((4,5-Dihydro-1H-imidazol-2-yl)amino)methyl)-N-(3,5-dimethoxybenzyl)-5-(6-fluoro-5-methylpyridin-3-yl)benzamide]	0.33 nM
Cc1cc(CNC(=O)c2cc(CNC3=NCCN3)cc(-c3cnc(F)c(C)c3)c2)ccc1Cl [Example 31, N-(4-Chloro-3-methylbenzyl)-3-(((4,5-dihydro-1H-imidazol-2-yl)amino)methyl)-5-(6-fluoro-5-methylpyridin-3-yl)benzamide]	< 0.1 nM
Cc1cccc(Oc2cc(CNC3=NCCN3)cc(C(=O)NCc3ccc(Cl)c(Cl)c3)c2)c1 [Example 32, N-(3,4-Dichlorobenzyl)-3-(((4,5-dihydro-1H-imidazol-2-yl)amino)methyl)-5-(m-tolyloxy)benzamide]	0.91 nM

Structure (SMILES)	Ki
COc1cc(OC)cc(C(C)NC(=O)c2cc(CNC3=NCCN3)cc(C(F)(F)F)c2)c1 (centres unmarked) [Example 33, 3-(((4,5-Dihydro-1H-imidazol-2-yl)amino)methyl)-N-(1-(3,5-dimethoxyphenyl)ethyl)-5-(trifluoromethyl)benzamide]	8.9 nM
COc1cc(CNC(=O)c2cc(CNC3=NCCN3)cc(-c3cnc(OC)c(Cl)c3)c2)cc(OC)c1 [Example 34, 3-(5-Chloro-6-methoxypyridin-3-yl)-5-(((4,5-dihydro-1H-imidazol-2-yl)amino)methyl)-N-(3,5-dimethoxybenzyl)benzamide]	0.37 nM
COc1cc(CNC(=O)c2cc(CNC3=NCCN3)cc(-c3cnc(F)c(Cl)c3)c2)cc(OC)c1 [Example 35, 3-(5-Chloro-6-fluoropyridin-3-yl)-5-(((4,5-dihydro-1H-imidazol-2-yl)amino)methyl)-N-(3,5-dimethoxybenzyl)benzamide]	0.36 nM
Cc1cnc(CNC(=O)c2cc(CNC3=NCCN3)cc(-c3ccc(F)nc3C)c2)cn1 [Example 36, 3-(((4,5-dihydro-1H-imidazol-2-yl)amino)methyl)-5-(6-fluoro-2-methylpyridin-3-yl)-N-((5-methylpyrazin-2-yl)methyl)benzamide]	2.8 nM
Cc1ncc(CNC(=O)c2cc(CNC3=NCCN3)cc(-c3ccc(F)nc3C)c2)cn1 [Example 37, 3-(((4,5-dihydro-1H-imidazol-2-yl)amino)methyl)-5-(6-fluoro-2-methylpyridin-3-yl)-N-((2-methylpyrimidin-5-yl)methyl)benzamide]	2.1 nM
Cc1cnc(F)c(-c2cc(CNC3=NCCN3)cc(C(=O)NCc3cc(Cl)ccn3)c2)c1 [Example 38, N-((4-chloropyridin-2-yl)methyl)-3-(((4,5-dihydro-1H-imidazol-2-yl)amino)methyl)-5-(2-fluoro-5-methylpyridin-3-yl)benzamide]	0.26 nM
Cc1ccnc(C(NC(=O)c2cc(CNC3=NCCN3)cc(-c3cc(C)cnc3F)c2)C2CC2)c1 (centres unmarked) [Example 39, N-(cyclopropyl(4-methylpyridin-2-yl)methyl)-3-(((4,5-dihydro-1H-imidazol-2-yl)amino)methyl)-5-(2-fluoro-5-methylpyridin-3-yl)benzamide]	< 0.1 nM
Cc1cnc(F)c(-c2cc(CNC3=NCCN3)cc(C(=O)N(C)C)c2)c1 [Example 40, 3-(((4,5-dihydro-1H-imidazol-2-yl)amino)methyl)-5-(2-fluoro-5-methylpyridin-3-yl)-N,N-dimethylbenzamide]	64 nM
Cc1cnc(F)c(-c2cc(CNC3=NCCN3)cc(C(=O)NCc3ccc(Cl)c(C)c3)c2)c1 [Example 42, N-(4-chloro-3-methylbenzyl)-3-(((4,5-dihydro-1H-imidazol-2-yl)amino)methyl)-5-(2-fluoro-5-methylpyridin-3-yl)benzamide]	< 0.1 nM
COc1cc(OC)cc(C(C)NC(=O)c2cc(CNC3=NC(=O)CN3C)cc(-c3ccc(F)nc3C)c2)c1 (centres unmarked) [Example 44, N-(1-(3,5-dimethoxyphenyl)ethyl)-3-(6-fluoro-2-methylpyridin-3-yl)-5-(((1-methyl-4-oxo-4,5-dihydro-1H-imidazol-2-yl)amino)methyl)benzamide]	17 nM
COc1ccnc(CNC(=O)c2cc(CNC3=NCCN3)cc(-c3cc(C(C)C)ccc3OC)c2)c1 [Example 45, 5-(((4,5-dihydro-1H-imidazol-2-yl)amino)methyl)-5′-isopropyl-2′-methoxy-N-((4-methoxypyridin-2-yl)methyl)-[1,1′-biphenyl]-3-carboxamide]	1.01 nM
COc1ccnc(CNC(=O)c2cc(CNC3=NCCN3)cc(-c3cc(C(F)(F)F)cnc3OC)c2)c1 [Example 46, 3-(((4,5-dihydro-1H-imidazol-2-yl)amino)methyl)-5-(2-methoxy-5-(trifluoromethyl)pyridin-3-yl)-N-((4-methoxypyridin-2-yl)methyl)benzamide]	0.1 nM
COc1ccnc(CNC(=O)c2cc(CNC3=NCCN3)cc(-c3ccc(F)cc3C(F)(F)F)c2)c1 [Example 47, 5-(((4,5-dihydro-1H-imidazol-2-yl)amino)methyl)-4′-fluoro-N-((4-methoxypyridin-2-yl)methyl)-2′-(trifluoromethyl)-[1,1′-biphenyl]-3-carboxamide]	< 0.1 nM
COc1ccnc(CNC(=O)c2cc(CNC3=NCCN3)cc(-c3cc(F)cnc3OC)c2)c1 [Example 48, 3-(((4,5-dihydro-1H-imidazol-2-yl)amino)methyl)-5-(5-fluoro-2-methoxypyridin-3-yl)-N-((4-methoxypyridin-2-yl)methyl)benzamide]	0.63 nM
COc1ccnc(CNC(=O)c2cc(CNC3=NCCN3)cc(-c3ccc(F)cc3OC)c2)c1 [Example 49, 5-(((4,5-Dihydro-1H-imidazol-2-yl)amino)methyl)-4′-fluoro-2′-methoxy-N-((4-methoxypyridin-2-yl)methyl)-[1,1′-biphenyl]-3-carboxamide]	0.3 nM
COc1ccnc(CNC(=O)c2cc(CNC3=NCCN3)cc(-c3cc(C)c(F)cc3OC)c2)c1 [Example 50, 5-(((4,5-Dihydro-1H-imidazol-2-yl)amino)methyl)-4′-fluoro-2′-methoxy-N-((4-methoxypyridin-2-yl)methyl)-5′-methyl-[1,1′-biphenyl]-3-carboxamide]	< 0.1 nM

From US10807959B2, “WDR5-MLL1 inhibitors and modulators” (Vanderbilt University, priority 2018, dated 2020)
